Assay results: US10654814B2, “Bicyclic hydroxamic acids useful as inhibitors of mammalian histone deacetylase activity” (KANCERA AB, priority 2015, dated 2020)
Where a name gives a salt, the structure may show the parent alone.

target: HDAC6 (Homo sapiens (Human), UniProt Q9UBN7); experiment: HDAC6 in vitro enzymatic assay (fluorescence); type: biochemical; conditions: Table 3; read-out: IC50 (nM) for inhibition of HDAC6
Protocol: Biological Tests Method for Measurement of Enzymatic Activity of HDACs Materials & Methods
All Examples were tested in HDAC1,2,3,6 and 8 in vitro enzymatic assays. The assay principle is well known (Hauser et al. 2009, Bradner et al. 2010) and all necessary reagents like enzymes, substrates, developer and reference compounds are commercially available (see e.g. BPS Biosciences http://www.bpsbioscience.com/). Stock solutions (10 mM in DMSO) of compounds were serially diluted 1:3 in 11 concentrations with a top concentration of 200 μM for HDAC1,2,3 and 2 μM for HDAC6 and HDAC8. The enzymatic reactions were conducted in a mixture containing assay buffer, bovine serum albumin, HDAC substrate, and a test compound. After enzymatic reaction, developer was added and after an additional incubation time, fluorescence intensity was measured at an excitation wavelength of 360 nm and an emission wavelength of 460 nm. All experiments were performed in duplicate.

HDAC6, sequence (Q9UBN7 whole entry): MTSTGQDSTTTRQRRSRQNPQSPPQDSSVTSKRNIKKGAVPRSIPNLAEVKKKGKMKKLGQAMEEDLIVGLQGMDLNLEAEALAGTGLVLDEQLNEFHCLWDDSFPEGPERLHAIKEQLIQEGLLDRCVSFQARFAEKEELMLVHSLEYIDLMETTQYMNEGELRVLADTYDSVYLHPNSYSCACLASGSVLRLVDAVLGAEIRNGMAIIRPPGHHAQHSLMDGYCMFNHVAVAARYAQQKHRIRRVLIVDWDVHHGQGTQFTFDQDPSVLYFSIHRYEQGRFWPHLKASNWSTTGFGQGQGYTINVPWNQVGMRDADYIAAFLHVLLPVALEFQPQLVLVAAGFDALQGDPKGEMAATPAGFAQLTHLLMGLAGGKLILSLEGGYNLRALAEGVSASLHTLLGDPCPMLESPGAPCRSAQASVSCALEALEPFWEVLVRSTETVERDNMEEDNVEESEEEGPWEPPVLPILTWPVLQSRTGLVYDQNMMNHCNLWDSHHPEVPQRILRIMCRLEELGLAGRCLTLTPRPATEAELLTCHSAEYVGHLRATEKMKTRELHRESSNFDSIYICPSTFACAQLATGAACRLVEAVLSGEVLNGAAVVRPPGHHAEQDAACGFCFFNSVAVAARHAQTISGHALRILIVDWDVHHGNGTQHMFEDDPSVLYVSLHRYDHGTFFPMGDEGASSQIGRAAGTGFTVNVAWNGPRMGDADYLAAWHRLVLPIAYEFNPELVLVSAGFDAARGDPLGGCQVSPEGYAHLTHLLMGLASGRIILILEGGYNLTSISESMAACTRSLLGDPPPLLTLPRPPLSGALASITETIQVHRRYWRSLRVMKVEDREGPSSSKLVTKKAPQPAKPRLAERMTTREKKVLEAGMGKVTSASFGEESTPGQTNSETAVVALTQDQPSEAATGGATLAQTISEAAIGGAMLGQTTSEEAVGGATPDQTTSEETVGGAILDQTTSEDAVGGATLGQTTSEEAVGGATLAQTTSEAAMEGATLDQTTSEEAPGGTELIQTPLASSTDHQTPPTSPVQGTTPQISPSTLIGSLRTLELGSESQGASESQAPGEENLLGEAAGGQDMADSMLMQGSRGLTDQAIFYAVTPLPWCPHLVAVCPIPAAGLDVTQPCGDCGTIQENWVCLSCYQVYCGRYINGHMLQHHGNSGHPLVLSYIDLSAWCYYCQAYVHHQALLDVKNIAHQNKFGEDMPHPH

Row | SMILES | IC50 [nM]
1 | O=C(NO)c1ccc2oc(N(Cc3ccccc3)c3ccccc3)nc2c1 [Example 241, 2-[benzyl(phenyl)amino]-N-hydroxy-1,3-benzoxazole-5-carboxamide] | 27
2 | O=C(NO)c1ccc2sc(-c3cc(F)ccc3O)cc2c1 [Example 105, 2-(5-fluoro-2-hydroxyphenyl)-N-hydroxy-1-benzothiophene-5-carboxamide] | 37
3 | Cc1ccc(Nc2nc3cc(C(=O)NO)ccc3o2)cc1 [Example 263, N-hydroxy-2-[(4-methylphenyl)amino]-1,3-benzoxazole-5-carboxamide] | 9
4 | CC(C)CN(Cc1nc2cc(C(=O)NO)ccc2s1)CC(C)C [Example 274, 2-{[Bis(2-methylpropyl)amino]methyl}-N-hydroxy-1,3-benzothiazole-5-carboxamide trifluoroacetate] | 16
5 | O=C(NO)c1ccc2oc(-c3ccc(-c4cccnc4)cc3F)nc2c1 [Example 175, 2-(2-fluoro-4-pyridin-3-ylphenyl)-N-hydroxy-1,3-benzoxazole-5-carboxamide] | 34
6 | O=C(NO)c1ccc2oc(-c3ccc(Br)cc3)nc2c1 [Example 2, 2-(4-bromophenyl)-N-hydroxy-1,3-benzoxazole-5-carboxamide] | 4
7 | COc1cc(-c2cc3ccc(C(=O)NO)cc3s2)ccc1O [Example 150, N-hydroxy-2-(4-hydroxy-3-methoxyphenyl)-1-benzothiophene-6-carboxamide] | 53
8 | CC(C)c1ccc(-c2cc3cc(C(=O)NO)cnc3[nH]2)cc1 [Example 84, N-Hydroxy-2-[4-(1-methylethyl)phenyl]-1H-pyrrolo[2,3-b]pyridine-5-carboxamide] | 19
9 | CC(C)c1ccc(-c2cc3cc(C(=O)NO)ccc3[nH]2)cc1 [Example 60, N-Hydroxy-2-[4-(1-methylethyl)phenyl]-1H-indole-5-carboxamide] | 62
10 | O=C(NO)c1ccc2oc(-c3ccc4c(c3)OCO4)nc2c1 [Example 8, 2-(1,3-benzodioxo1-5-yl)-N-hydroxy-1,3-benzoxazole-5-carboxamide] | 14
11 | CN(C)C(=O)c1ccc(-c2cc3cc(C(=O)NO)ccc3s2)cc1 [Example 108, 2-[4-(dimethylcarbamoyl)phenyl]-N-hydroxy-1-benzothiophene-5-carboxamide] | 35
12 | Cn1c(N(Cc2ccccc2)c2ccccc2)nc2cc(C(=O)NO)ccc21 [Example 141, 2-(benzyl(phenyl)amino)-N-hydroxy-1-methyl-1H-benzo[d]imidazole-5-carboxamide] | 22
13 | CC(C)c1ccc(-c2nc3cc(C(=O)NO)ccc3o2)cc1F [Example 211, 2-[3-Fluoro-4-(1-methylethyl)phenyl]-N-hydroxy-1,3-benzoxazole-5-carboxamide] | 38
14 | CC(C)c1ccc(-c2nc3ccc(C(=O)NO)cc3o2)cc1 [Example 49, N-Hydroxy-2-[4-(1-methylethyl)phenyl]-1,3-benzoxazole-6-carboxamide] | 9
15 | O=C(NO)c1ccc2nc(NCc3ccccc3)[nH]c2c1 [Example 127, 2-(benzylamino)-N-hydroxy-1H-benzo[d]imidazole-6-carboxamide] | 60
16 | O=C(NO)c1ccc2nc(-c3ccc4[nH]nnc4c3)oc2c1 [Example 54, 2-(1H-Benzotriazol-5-yl)-N-hydroxy-1,3-benzoxazole-6-carboxamide] | 60
17 | O=C(NO)c1ccc2nc(Nc3cccc(-c4ccccc4)c3)[nH]c2c1 [Example 136, 2-([1,1′-biphenyl]-3-ylamino)-N-hydroxy-1H-benzo[d]imidazole-6-carboxamide] | 72
18 | O=C(NO)c1ccc2cc(-c3ccoc3)sc2c1 [Example 149, 2-furan-3-yl-N-hydroxy-1-benzothiophene-6-carboxamide] | 49
19 | CC(C)c1ccc(-c2cc3ncc(C(=O)NO)cc3o2)cc1 [Example 115, N-Hydroxy-2-[4-(1-methylethyl)phenyl]furo[3,2-b]pyridine-6-carboxamide] | 23
20 | CN(Cc1ccccc1)c1nc2cc(C(=O)NO)ccc2n1C [Example 139, 2-(benzyl(methyl)amino)-N-hydroxy-1-methyl-1H-benzo[d]imidazole-5-carboxamide] | 30
21 | O=C(NO)c1ccc2sc(COCc3ccccc3)nc2c1 [Example 270, 2-[(Benzyloxy)methyl]-N-hydroxy-1,3-benzothiazole-5-carboxamide] | 4
22 | COc1ccc(-c2cc3cc(C(=O)NO)ccc3o2)cn1 [Example 278, N-hydroxy-2-(6-methoxypyridin-3-yl)-1-benzofuran-5-carboxamide] | 96

Row | SMILES | IC50 [nM]
23 | CC(C)c1ccc(-c2nc3ncc(C(=O)NO)cc3[nH]2)cc1 [Example 57, N-Hydroxy-2-[4-(1-methylethyl)phenyl]-1H-imidzo[4,5-b]pyridine-6-carboxamide] | 11
24 | O=C(NO)c1ccc2oc(N3CCc4ccccc4C3)nc2c1 [Example 46, 2-(3,4-dihydroisoquinolin-2(1H)-yl)-N-hydroxy-1,3-benzoxazole-5-carboxamide] | 48
25 | O=C(NO)c1ccc2nc(-c3ccc(-c4cccnc4)nc3)oc2c1 [Example 55, 2-(2,3′-Bipyridin-5-yl)-N-hydroxy-1,3-benzoxazole-6-carboxamide trifluoroacetate] | 81
26 | Cn1c(Nc2ccccc2)nc2cc(C(=O)NO)ccc21 [Example 137, N-Hydroxy-1-methyl-2-(phenylamino)-1H-benzimidazole-5-carboxamide] | 39
27 | O=C(NO)c1ccc2oc(-c3ccc(-c4ccccc4)nc3)nc2c1 [Example 161, N-Hydroxy-2-(6-phenylpyridin-3-yl)-1,3-benzoxazole-5-carboxamide trifluoroacetate] | 22
28 | CC(C)c1ccc(-c2cc3cc(C(=O)NO)cnc3s2)cc1 [Example 87, N-Hydroxy-2-[4-(1-methylethyl)phenyl]thieno[2,3-b]pyridine-5-carboxamide] | 42
29 | O=C(NO)c1ccc2oc(-c3ccccc3CO)cc2c1 [Example 281, N-hydroxy-2-[2-(hydroxymethyl)phenyl]-1-benzofuran-5-carboxamide] | 92
30 | COCCN(C)Cc1cccc(-c2nc3cc(C(=O)NO)ccc3o2)c1 [Example 205, N-hydroxy-2-(3-{[(2-methoxy-ethyl)(methyl)amino]methyl}phenyl)-1,3-benzoxazole-5-carboxamide trifluoroacetate] | 64
31 | O=C(NO)c1ccc2sc(CO)nc2c1 [Example 271, N-Hydroxy-2-(hydroxymethyl)-1,3-benzothiazole-5-carboxamide] | 37
32 | O=C(NO)c1ccc2sc(-c3cncc(Br)c3)nc2c1 [Example 80, 2-(5-Bromopyridin-3-yl)-N-hydroxy-1,3-benzothiazole-5-carboxamide] | 30
33 | CS(=O)(=O)Nc1ccc(-c2cc3cc(C(=O)NO)ccc3s2)cc1 [Example 109, N-hydroxy-2-{4-[(methylsulfonyl)amino]phenyl}-1-benzothiophene-5-carboxamide] | 86
34 | O=C(NO)c1ccc2oc(NC3CCCCCCC3)nc2c1 [Example 232, 2-(cyclooctylamino)-N-hydroxy-1,3-benzoxazole-5-carboxamide] | 51
35 | O=C(NO)c1ccc2oc(-c3ccc(F)c(F)c3)nc2c1 [Example 5, 2-(3,4-difluorophenyl)-N-hydroxy-1,3-benzoxazole-5-carboxamide] | 36
36 | C[C@@H]1CN(Cc2cccc(-c3nc4cc(C(=O)NO)ccc4o3)c2)C[C@H](C)O1 [Example 202, 2-(3-{[(cis)-2,6-dimethylmorpholin-4-yl]methyl}phenyl)-N-hydroxy-1,3-benzoxazole-5-carboxamide trifluoroacetate] | 53
37 | COc1ncccc1-c1cc2cc(C(=O)NO)ccc2s1 [Example 97, N-hydroxy-2-(2-methoxypyridin-3-yl)-1-benzothiophene-5-carboxamide] | 47
38 | O=C(NO)c1ccc2oc(-c3ccc(NC4CCCCCC4)nc3)nc2c1 [Example 158, 2-[6-(cycloheptylamino)pyridin-3-yl]-N-hydroxy-1,3-benzoxazole-5-carboxamide trifluoroacetate] | 34
39 | O=C(NO)c1ccc2oc(-c3ccc(N4CCCC4)nc3)nc2c1 [Example 41, N-Hydroxy-2-(6-pyrrolidin-1-ylpyridin-3-yl)-1,3-benzoxazole-5-carboxamide trifluoroacetate] | 22
40 | O=C(NO)c1ccc2nc(NCc3ccc(-c4ccccc4)cc3)[nH]c2c1 [Example 125, 2-(([1,1′-biphenyl]-4-ylmethyl)amino)-N-hydroxy-1H-benzo[d]imidazole-6-carboxamide] | 7
41 | O=C(NO)c1ccc2sc(Cc3ccc(F)cc3)nc2c1 [Example 79, 2-(4-fluorobenzyl)-N-hydroxy-1,3-benzothiazole-5-carboxamide] | 7
42 | CCN(CC)c1ccc(-c2nc3cc(C(=O)NO)ccc3o2)cc1 [Example 33, 2-[4-(Diethylamino)phenyl]-N-hydroxy-1,3-benzoxazole-5-carboxamide trifluoroacetate] | 22
43 | O=C(NO)c1ccc2oc(NC3(c4cccc(F)c4)CCCCC3)nc2c1 [Example 262, 2-{[1-(3-fluorophenyl)cyclohexyl]amino}-N-hydroxy-1,3-benzoxazole-5-carboxamide] | 9
44 | O=C(NO)c1ccc2nc(-c3ccc(F)cc3)oc2c1 [Example 50, 2-(4-Fluorophenyl)-N-hydroxy-1,3-benzoxazole-6-carboxamide] | 34
